According to patent US11497733B2, “Combination therapy of HSP90 inhibitors and PD-1 inhibitors for treating cancer” (Synta Pharmaceuticals Corp., priority 2015, dated 2022):
Entries after “also recorded” stand apart in the source; their conditions may differ.

Legend:
CT26 tumor cells = assay: Chemokine production by CT26 tumor cells in vitro; type: cell-based; conditions: overnight, sublethal ganetespib with 300 U/ml TNFα, FIG. 8
Description: (§1) MC38 or CT26 tumor cells were incubated with the indicated concentrations of ganetespib as shown in FIG. 8 in combination with 300 U/ml TNFα overnight and supernatants were collected and assayed for chemokines.

MC38 cells = assay: MHC Class I (H2-K) surface expression on MC38 cells, flow cytometry; type: cell-based, mouse; conditions: overnight, 100 nM ganetespib (sublethal), FIG. 7B
Description: MC38 cells were incubated overnight with media+0.01% DMSO (dashed red line, light blue line), or media with 100 nM ganetespib (dotted red line, dark blue line). Cells were stained with an isotype control (red lines), or antibody to mouse H2-K (blue lines).

MC38 tumor cells = assay: Chemokine production by MC38 tumor cells in vitro; type: cell-based, mouse; conditions: overnight, sublethal ganetespib with 300 U/ml TNFα, FIG. 8
Description: as §1

HCC827 cells = assay: MHC Class I surface expression on HCC827 cells, flow cytometry; type: cell-based; conditions: overnight incubation, FIG. 7A
Description: HCC827 cells were incubated with DMSO, Interferon gamma (IFNγ) or ganetespib and stained with anti MHC Class 1 antibodies and examined by flow cytometry to determine the number of molecules per cell surface.

MC38 tumors = assay: Gene expression array (NanoString) of MC38 tumors after a ganetespib dose; type: in vivo, mice
Description: Mice with MC38 tumors received a dose of ganetespib. Tumors (3 per time point) were removed from the animals at 4, 24, 48 and 120 hr post dose. RNA was prepared and analyzed for gene expression using NanoString. Expression levels of genes were made by comparing drug treated tumors with vehicle-treated tumors.

[1] = test system: MC38 colon carcinoma tumors; assay: MC38 colon carcinoma syngeneic mouse tumor model, tumor growth; type: in vivo, C57 BL/6 mice; conditions: established MC38 tumors; ganetespib 125 mg/kg days 8 and 15; αPD-L1 200 μg days 8, 12, 15; FIG. 1A
Description: Such findings support the premise that targeting HSP90 may represent a complementary and therapeutically advantageous approach together with immune checkpoint blockade for augmenting antitumor immune responses.
The HSP90 inhibitor ganetespib potentiates the antitumor efficacy of PD-L1 antibody treatment in syngeneic mouse tumor models. In FIG. 1 (a), C57 BL/6 mice bearing established MC38 colon carcinoma tumors (n=7/group) were treated with 200 μg IgG1 control or anti-PD-L1 antibody (αPD-L1; Sorrento Therapeutics, Inc., San Diego), either alone or in combination with 125 mg/kg ganetespib. Ganetespib was dosed on a weekly schedule (days 8 and 15), αPD-L1 was administered on days 8, 12, and 15. […] In FIG. 1 (b), C57 BL/6 mice bearing established B16 melanoma tumors (n=3/group) were dosed using a similar regimen as in (a).

[2] = within 48-120 hr after in vivo treatment, versus vehicle-treated tumors

## CC(C)c1cc(-c2nnc(O)n2-c2ccc3c(ccn3C)c2)c(O)cc1O [ganetespib, 3-(2,4-DIHYDROXY-5- ISOPROPYL-PHENYL)-4-(1- METHYL-INDOL-5-YL)-5- HYDROXY-[1,2,4] TRIAZOLE (GANETESPIB)]
CT26 tumor cells
  chemokine production (CCL2, CCL5, CXCL10): induces chemokine production; also recorded: provokes production of chemokines by the tumor cells (CCL2, CCL5, CXCL10)
MC38 cells
  major histocompatibility antigen (MHC Class I, H2-K) expression: upregulates major histocompatibility antigens, especially MHC Class I
MC38 tumor cells
  chemokine production (CCL2, CCL5, CXCL10): induces chemokine production; also recorded: provokes production of chemokines by the tumor cells (CCL2, CCL5, CXCL10)
HCC827 cells
  number of HLA-ABC molecules/cell: doubled
MC38 tumors; after a single ganetespib administration, FIG. 6
  influx of immune cells into tumors (gene expression): influx of T cells, B cells and NK cells into tumors
MC38 tumors; after in vivo treatment, versus vehicle-treated tumors
  chemokines in tumor (gene expression): Increases in a large number of chemokines
MC38 tumors; [2]
  NK cells and CD8 cells in tumor (gene expression): increased numbers of NK cells and CD8 cells
  Treg cells in tumor (gene expression): decreased Treg cells
[1]
  tumor growth suppression / antitumor efficacy: comparable degree of tumor growth suppression to that seen following selective anti-PD-L1 antibody treatment
